In ChEMBL document CHEMBL1201862, “PubChem BioAssay data set” (2004):
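Test compounds were applied to cells in 96-well plates for 48 hours at 5 doses. GI50 is the concentration that inhibits growth by half.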 Activity calls are given as the source filed them. Cut-off read from the data, not from the text of the source: active = GI50 up to about 1.1 µM and inactive = higher.

What was measured:
Assay in all cases: NCI-60 cell line screen, 48 h
SK-MEL-2 = system: SK-MEL-2
A549 = system: A549
786-0 = system: 786-0
A498 = system: A498
EKVX = system: EKVX
BT-549 = system: BT-549
OVCAR-3 = system: OVCAR-3
K562 = system: K562
LOX IMVI = system: LOX IMVI
DU-145 = system: DU-145
CCRF-CEM = system: CCRF-CEM
MDA-MB-435 = system: MDA-MB-435
ACHN = system: ACHN
MDA-MB-231 = system: MDA-MB-231
MOLT-4 = system: MOLT-4
KM12 = system: KM12
HCT-116 = system: HCT-116
SK-MEL-5 = system: SK-MEL-5
SNB-75 = system: SNB-75
OVCAR-8 = system: OVCAR-8
SF-268 = system: SF-268
NCI/ADR-RES = system: NCI/ADR-RES
UACC-257 = system: UACC-257
Malme-3M = system: Malme-3M
NCI-H460 = system: NCI-H460
NCI-H522 = system: NCI-H522
HT-29 = system: HT-29
MCF7 = system: MCF7
HCC 2998 = system: HCC 2998
NCI-H226 = system: NCI-H226
HCT-15 = system: HCT-15
HOP-92 = system: HOP-92
SNB-19 = system: SNB-19
TK-10 = system: TK-10
U-251 = system: U-251
HL-60 = system: HL-60
SF-539 = system: SF-539
SN12C = system: SN12C
NCI-H23 = system: NCI-H23
SK-OV-3 = system: SK-OV-3
Hs-578T = system: Hs-578T
OVCAR-4 = system: OVCAR-4
CAKI-1 = system: CAKI-1
M14 = system: M14
UACC-62 = system: UACC-62
HOP-62 = system: HOP-62
RPMI-8226 = system: RPMI-8226
SW-620 = system: SW-620
SF-295 = system: SF-295
COLO 205 = system: COLO 205
OVCAR-5 = system: OVCAR-5
UO-31 = system: UO-31
T47D = system: T47D
PC-3 = system: PC-3
IGROV-1 = system: IGROV-1
SR = system: SR
RXF 393 = system: RXF 393

## CCOC(=O)NNC(=O)C1CSC(c2ccccc2)N1C(C)=O (centres undefined)
SK-MEL-2
  GI50: > 100 µM (inactive)
A549
  GI50: > 100 µM (inactive)
786-0
  GI50: > 100 µM (inactive)
A498
  GI50: > 100 µM (inactive)
EKVX
  GI50: > 100 µM (inactive)
BT-549
  GI50: > 100 µM (inactive)
OVCAR-3
  GI50: > 100 µM (inactive)
K562
  GI50: > 100 µM (inactive)
LOX IMVI
  GI50: > 100 µM (inactive)
DU-145
  GI50: > 100 µM (inactive)
CCRF-CEM
  GI50: > 100 µM (inactive)
MDA-MB-435
  GI50: > 100 µM (inactive)
ACHN
  GI50: > 100 µM (inactive)
MDA-MB-231
  GI50: > 100 µM (inactive)
MOLT-4
  GI50: > 100 µM (inactive)
KM12
  GI50: > 100 µM (inactive)
HCT-116
  GI50: > 100 µM (inactive)
SK-MEL-5
  GI50: > 100 µM (inactive)
SNB-75
  GI50: > 100 µM (inactive)
OVCAR-8
  GI50: > 100 µM (inactive)
SF-268
  GI50: > 100 µM (inactive)
NCI/ADR-RES
  GI50: > 100 µM (inactive)
UACC-257
  GI50: > 100 µM (inactive)
Malme-3M
  GI50: > 100 µM (inactive)
NCI-H460
  GI50: > 100 µM (inactive)
NCI-H522
  GI50: > 100 µM (inactive)
HT-29
  GI50: > 100 µM (inactive)
MCF7
  GI50: > 100 µM (inactive)
HCC 2998
  GI50: > 100 µM (inactive)
NCI-H226
  GI50: > 100 µM (inactive)
HCT-15
  GI50: > 100 µM
HOP-92
  GI50: 82.2 µM (inactive)
SNB-19
  GI50: > 100 µM (inactive)
TK-10
  GI50: > 100 µM (inactive)
U-251
  GI50: > 100 µM (inactive)
HL-60
  GI50: > 100 µM (inactive)
SF-539
  GI50: > 100 µM (inactive)
SN12C
  GI50: > 100 µM (inactive)
NCI-H23
  GI50: > 100 µM (inactive)
SK-OV-3
  GI50: > 100 µM (inactive)
Hs-578T
  GI50: > 100 µM (inactive)
OVCAR-4
  GI50: > 100 µM (inactive)
CAKI-1
  GI50: > 100 µM (inactive)
M14
  GI50: > 100 µM (inactive)
UACC-62
  GI50: > 100 µM (inactive)
HOP-62
  GI50: > 100 µM (inactive)
RPMI-8226
  GI50: > 100 µM (inactive)
SW-620
  GI50: > 100 µM (inactive)
SF-295
  GI50: > 100 µM (inactive)
COLO 205
  GI50: > 100 µM (inactive)
OVCAR-5
  GI50: > 100 µM (inactive)
UO-31
  GI50: > 100 µM (inactive)
T47D
  GI50: > 100 µM (inactive)
PC-3
  GI50: > 100 µM (inactive)
IGROV-1
  GI50: > 100 µM (inactive)

## CNn1c(-c2ccc(C)cc2)n[nH]c1=O
SK-MEL-2
  GI50: > 100 µM (inactive)
A549
  GI50: > 100 µM (inactive)
786-0
  GI50: > 100 µM (inactive)
A498
  GI50: > 100 µM (inactive)
EKVX
  GI50: > 100 µM (inactive)
BT-549
  GI50: > 100 µM (inactive)
OVCAR-3
  GI50: > 100 µM (inactive)
K562
  GI50: 55.8 µM (inactive)
SR
  GI50: 68.5 µM (inactive)
LOX IMVI
  GI50: > 100 µM (inactive)
CCRF-CEM
  GI50: 92 µM (inactive)
MDA-MB-435
  GI50: > 100 µM (inactive)
ACHN
  GI50: > 100 µM (inactive)
MDA-MB-231
  GI50: > 100 µM (inactive)
MOLT-4
  GI50: > 100 µM (inactive)
KM12
  GI50: > 100 µM (inactive)
HCT-116
  GI50: > 100 µM (inactive)
SK-MEL-5
  GI50: > 100 µM (inactive)
OVCAR-8
  GI50: > 100 µM (inactive)
SF-268
  GI50: > 100 µM (inactive)
NCI/ADR-RES
  GI50: > 100 µM (inactive)
UACC-257
  GI50: > 100 µM (inactive)
Malme-3M
  GI50: > 100 µM (inactive)
NCI-H460
  GI50: > 100 µM (inactive)
NCI-H522
  GI50: > 100 µM (inactive)
HT-29
  GI50: > 100 µM (inactive)
MCF7
  GI50: > 100 µM (inactive)
HCC 2998
  GI50: > 100 µM (inactive)
NCI-H226
  GI50: > 100 µM (inactive)
HCT-15
  GI50: > 100 µM
HOP-92
  GI50: > 100 µM (inactive)
SNB-19
  GI50: > 100 µM (inactive)
TK-10
  GI50: > 100 µM (inactive)
U-251
  GI50: > 100 µM (inactive)
SF-539
  GI50: > 100 µM (inactive)
SN12C
  GI50: > 100 µM (inactive)
NCI-H23
  GI50: > 100 µM (inactive)
SK-OV-3
  GI50: > 100 µM (inactive)
Hs-578T
  GI50: > 100 µM (inactive)
OVCAR-4
  GI50: > 100 µM (inactive)
CAKI-1
  GI50: > 100 µM (inactive)
M14
  GI50: > 100 µM (inactive)
UACC-62
  GI50: > 100 µM (inactive)
HOP-62
  GI50: > 100 µM (inactive)
RXF 393
  GI50: > 100 µM (inactive)
RPMI-8226
  GI50: > 100 µM (inactive)
SW-620
  GI50: > 100 µM (inactive)
SF-295
  GI50: > 100 µM (inactive)
COLO 205
  GI50: > 100 µM (inactive)
OVCAR-5
  GI50: > 100 µM (inactive)
UO-31
  GI50: > 100 µM (inactive)
T47D
  GI50: > 100 µM (inactive)
PC-3
  GI50: > 100 µM (inactive)
IGROV-1
  GI50: > 100 µM (inactive)
